Source: article PMC10373114, “CDK2 regulates collapsed replication fork repair in CCNE1-amplified ovarian cancer cells via homologous recombination” (NAR Cancer, 2023)
One block for each molecule: values may come before it.

Tests used:
[1] = tested on: COV644 cells; assay: CyQuant proliferation assay; format: cell-based, human; details: 5 days
Description: (§1) OVCAR-3, COV644, or MCF-7 cells were seeded at 1000 cells/well in 384-well black, clear bottom plates and allowed to adhere overnight at 37°C/5% CO2. The following day, cells were treated with compound in a 10-point dose response, 1:4 dilutions. After 5 days of incubation, CyQuant Direct Proliferation Assay was performed according to the manufacturer's instructions. Data were processed with GraphPad Prism using a four-parameter fit to calculate IC50.

[2] = tested on: MCF-7 cells; assay: CyQuant proliferation assay; format: cell-based; details: Homo sapiens, MCF7, 120 h, read-out: MCF-7 IC50
Description: as §1

[3] = tested on: kinases tested (n = 468); assay: KINOMEscan kinome selectivity; format: binding; details: fraction of kinases with <10% of control at 3 μM among 468 kinases tested
[4] = tested on: CtIP bandshift and pRPA S4/8; assay: Western blot of HR signaling after etoposide; format: cell-based; details: 1 μM RO-3306 or 10 μM roscovitine, 24 h before 50 μM etoposide 2 h
Description: Cells were lysed in PhosphoSafe Lysis Buffer (EDM millipore, Cat#71296) and protein was quantified using the Pierce BCA Gold Kit (Thermo Fisher Scientific Cat#A53227). Lysate and lysis buffer were combined with 4× Loading Dye (Bio-Rad, Cat#1610747) and 2ME (Bio-Rad, Cat#1610710). Samples were loaded into Bio-Rad 4–20% Tris-glycine, 18-well SDS-PAGE (Cat#5671094). Transfer was performed using Bio-Rad dry transfer system (Trans-Blot Turbo) (Nitrocellulose membrane, 0.2 μM). Blocking was performed using LI-COR Odyssey Blocking Buffer (Cat#927–70001). Primary antibodies (CDK2 1:500, p16 1:1000, CCNE1 1:500, pRbT821 1:500, Actin R 1:2000, p21 1:1000, CCNA2 1:500, pRb S807/811 1:1000, pRb S780 1:500, CtIP 1:1000, Actin M 1:5000, pH2A.X Ser139 1:1000, pCDK2 T160 1:1000, pRPA S4/8 1:1000, CDK1 1:1000, pCDK1 Y15 1:1000, pChk1 S317 1:500, Total Chk1 1:1000, Tubulin 1:10 000) were combined with Odyssey Blocking Buffer and 0.1% Tween-20, and incubated at 4°C, rotating. Secondary antibodies were combined with Odyssey Blocking Buffer and 0.1% Tween-20 and incubated at room temperature, rotating. All secondary antibodies were diluted to 1:10 000 (LI-COR Cat#926–33212, Cat#926-33213, Cat#926-68070, Cat#926–68071, Cat#926–68076). Signals were detected using LI-COR Odyssey CLx Imaging Studio.

[5] = tested on: OVCAR-3 cells; assay: CyQuant proliferation assay; format: cell-based, human; details: 5 days
Description: as §1

[6] = tested on: OVCAR-3 cells; assay: Proliferative recovery after HU-induced replication fork collapse (IncuCyte confluence); format: cell-based, human; details: 500 nM, HU 2 mM 24 h pulse
Description: Figure S2. Replication fork stall signaling is dependent on CDK2, HR in CCNE1 - […]
(A) Cyclin E1 protein expression is strongly associated with CCNE1 copy number […]
amplification among TCGA patients with ovarian cancer (n=304) (Welch Two Sample t- […]
test, P = 2.3E-13). (B) Chemical structures of BLU1851. (C) Kinome tree for BLU1851 […]
at 3 µM (S-Score = 0.050). (D) Dose-response curves for BLU1851 enzyme inhibition […]
for indicated CDK family members. Error bars represent SD of at least duplicate independent experiments. (E) NanoBRET assessment of BLU1851 target engagement […]
in indicated CDK complexes expressed in HEK-293 cells. Error bars represent SD of at […]
least duplicate independent experiments. (F) Dose-response curve for pRb T821/826 […]
inhibition by BLU1851 in OVCAR-3 cells. Error bars represent SD of at least duplicate independent experiments. (G) Dose-response curve for pLamin S22 inhibition by BLU1851 in OVCAR-3 and COV644 cells. Error bars represent SD of duplicate independent experiments. (H) Dose-response curves in MCF-7, OVCAR-3 cells. […] (I) Quantification of pCHK1 S317 normalized to […]
allowed to recover in the presence of rabusertib. Confluence was calculated using […]
confluency at experimental endpoint. Confluence was measured by IncuCyte live cell […]
imaging and values were determined using an algorithm to detect cells from phase- […]

[7] = tested on: homologous recombination (3X-FLAG ACTB reporter); assay: CRISPR/Cas9 recombination assay; format: cell-based, human; details: 25 or 250 nM BLU1851, 10 μM roscovitine; 72 h
Description: pBluescript SK II + and LentiCRISPR v2 plasmids were purchased from Genscript. LentiCRISPR v2 plasmids expressing single guide (sgRNA) against ACTB or scrambled sgRNA were constructed according to the depositor's instructions. To construct HR donor vectors against ACTB, sequences from −1554 to +1527 relative to the stop codon of ACTB plus 3× FLAG directly 5’ from the stop codon were synthesized and cloned into pBluescript SK II using restriction digest and ligation. Compounds were added to cells on the day of plasmid transfection. sgRNA/Cas9 and the donor plasmid were prepared in a 1:2 molar ratio; 1 μg of total DNA/well was transfected onto cells using Lipofectamine 2000 (Thermo Fisher Scientific Cat#11668019). Cells were harvested for Western Blot analysis 72 h later.

Structure (SMILES): CC(C)CC(=O)c1c(Nc2ccc(Cl)cc2Cl)[nH]c2c(Cl)ccc([N+](=O)[O-])c2c1=O [JH-RE-06]
- sensitivity of COV644 cells compared with OVCAR-3 cells (proliferative IC50) [1]: more sensitive

Structure (SMILES): CC(=O)c1c(C)c2cnc(Nc3ccc(N4CCNCC4)cn3)nc2n(C2CCCC2)c1=O [Palbociclib, reference compound]
- IC50 [2]: 150 nM
- Kinome S (10) [3]: 0.041

Structure (SMILES): O=C1NC(=NCc2cccs2)S/C1=C\c1ccc2ncccc2c1 [RO-3306]
- HR signaling across cell lines tested [4]: only a small effect in some cell lines

- sensitivity of OVCAR-3 cells compared with COV644 cells (proliferative IC50) [5]: more sensitive
Structure (SMILES): N=C1NC(=O)/C(=C/c2ccc(O)cc2)S1 [mirin]

Structure (SMILES): Cc1cnc(NC(=O)Nc2cc(Br)c(C)cc2OC[C@@H]2CNCCO2)cn1 [rabusertib]
- proliferation following HU treatment [6]: suppressed the ability of OVCAR-3 cells to proliferate following HU treatment

Structure (SMILES): CC[C@H](CO)Nc1nc(NCc2ccccc2)c2ncn(C(C)C)c2n1 [roscovitine]
- HR signaling across cell lines tested [4]: suppressed HR signaling in most cell lines tested
- recombination (3X-FLAG product) [7]: inhibited recombination in all cell lines

Structure (SMILES): COC1=C(N)C(=O)c2nc(-c3nc(C(=O)O)c(C)c(-c4ccc(OC)c(OC)c4O)c3N)ccc2C1=O [streptonigrin]
- sensitivity of OVCAR-3 cells compared with COV644 cells (proliferative IC50) [5]: more sensitive
